Test results: article PMC8352719 (The Journal of General Physiology, 2021)
“And” between values parts separate entries of the source, which are not always exact repeats. Equal entries are not always repeated. “Also recorded” adds a separate entry of the source. Where two headings read alike, the source gives them in different places.

Columns and labels:
[1] = LOP levels with a therapeutic dose in humans; type: in vivo; settings: therapeutic dose of 2–4 mg, assuming solvation in 1 liter of luminal fluid
[2] = biological target: BKα channels (Homo sapiens, UniProt Q12791); experiment: Kinetic model analysis
BKα channels, sequence (Q12791 whole entry): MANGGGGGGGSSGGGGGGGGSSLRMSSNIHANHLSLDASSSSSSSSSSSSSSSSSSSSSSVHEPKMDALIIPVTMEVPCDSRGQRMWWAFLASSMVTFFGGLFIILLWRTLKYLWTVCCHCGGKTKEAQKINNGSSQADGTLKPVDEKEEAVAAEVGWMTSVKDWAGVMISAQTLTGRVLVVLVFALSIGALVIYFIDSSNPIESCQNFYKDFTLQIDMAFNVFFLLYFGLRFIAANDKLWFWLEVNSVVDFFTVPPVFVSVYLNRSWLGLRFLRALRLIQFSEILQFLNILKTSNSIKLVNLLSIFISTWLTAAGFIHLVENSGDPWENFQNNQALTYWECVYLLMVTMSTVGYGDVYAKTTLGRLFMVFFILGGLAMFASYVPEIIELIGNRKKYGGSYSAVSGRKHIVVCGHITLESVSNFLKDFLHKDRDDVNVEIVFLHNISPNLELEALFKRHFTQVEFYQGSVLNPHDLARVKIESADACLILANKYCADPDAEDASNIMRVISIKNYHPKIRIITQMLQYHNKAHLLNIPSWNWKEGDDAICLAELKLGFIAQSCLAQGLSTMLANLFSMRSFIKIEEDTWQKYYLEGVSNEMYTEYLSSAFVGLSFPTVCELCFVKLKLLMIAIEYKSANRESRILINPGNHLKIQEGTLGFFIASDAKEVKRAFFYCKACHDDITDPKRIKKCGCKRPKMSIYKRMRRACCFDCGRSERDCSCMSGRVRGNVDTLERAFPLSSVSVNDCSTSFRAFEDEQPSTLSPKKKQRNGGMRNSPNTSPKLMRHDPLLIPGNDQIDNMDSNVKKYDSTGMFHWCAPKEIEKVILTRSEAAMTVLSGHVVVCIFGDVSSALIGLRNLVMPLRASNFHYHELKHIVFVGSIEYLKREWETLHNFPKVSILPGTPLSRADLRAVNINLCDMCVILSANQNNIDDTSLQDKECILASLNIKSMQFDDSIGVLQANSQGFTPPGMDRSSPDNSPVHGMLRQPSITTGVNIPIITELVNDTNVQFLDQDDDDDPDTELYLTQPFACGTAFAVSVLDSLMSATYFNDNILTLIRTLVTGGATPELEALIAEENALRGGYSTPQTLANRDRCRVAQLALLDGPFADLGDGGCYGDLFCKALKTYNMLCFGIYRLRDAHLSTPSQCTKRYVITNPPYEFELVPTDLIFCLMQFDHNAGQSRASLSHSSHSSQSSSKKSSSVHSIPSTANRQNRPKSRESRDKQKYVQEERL

[3] = humans; therapeutic dose of 2–4 mg; conversion of 2 ng/ml; cited from earlier work
[4] = biological target: BKα/γ1 channels (human BK channel α- and γ1-subunits (LRRC26), HEK-293T) (Homo sapiens, UniProt Q12791); experiment: Macroscopic BK currents in excised inside-out patches; type: biochemical
BKα/γ1 channels (human BK channel α- and γ1-subunits (LRRC26), HEK-293T), sequence (Q12791 whole entry): as above
BKα/γ1 channels (human BK channel α- and γ1-subunits (LRRC26), HEK-293T), sequence (Q2I0M4 27-334 partner): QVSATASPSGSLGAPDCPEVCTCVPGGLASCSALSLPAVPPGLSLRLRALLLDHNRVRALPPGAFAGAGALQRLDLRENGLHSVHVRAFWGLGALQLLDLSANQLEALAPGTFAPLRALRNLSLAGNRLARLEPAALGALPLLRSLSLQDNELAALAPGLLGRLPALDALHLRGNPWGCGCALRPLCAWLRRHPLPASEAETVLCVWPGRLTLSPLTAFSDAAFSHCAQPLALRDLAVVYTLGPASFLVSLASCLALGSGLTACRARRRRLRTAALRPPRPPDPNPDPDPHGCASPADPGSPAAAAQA

[5] = tested on: BK channel; settings: ref Vouga et al., 2019; cited from earlier work
[6] = biological target: T1, BKα channels (human BK channel α-subunit, HEK-293T) (Homo sapiens, UniProt Q12791); settings: 30 µM LOP
T1 sequence (Q12791 whole entry): as the sequence (Q12791 whole entry) above

[7] = biological target: BKα/γ1 channels (Homo sapiens, UniProt Q12791); experiment: Whole-cell recordings from HEK-293T cells overexpressing BKα/γ1 channels; type: cell-based
BKα/γ1 channels, sequence (Q12791 whole entry, the tested form may be a part): as the sequence (Q12791 whole entry) above
BKα/γ1 channels, sequence (Q2I0M4 27-334 partner): as the sequence (Q2I0M4 27-334 partner) above

[8] = biological target: T1, BKα channels (human BK channel α-subunit, HEK-293T); settings: for τ of decay phase on LOP application: perfusion limited; for V1/2: 10 μM LOP; for effective off-rate: IC50 × on-rate; for τrecovery: two-pulse protocol
[9] = biological target: T1, BKα channels (human BK channel α-subunit, HEK-293T); experiment: biochemical
[10] = IC50 (Hill fit of mean Gmax versus [LOP]), nominally 0 Ca2+
[11] = IC50 (Hill fit of mean V1/2 versus [LOP]), nominally 0 Ca2+
[12] = nominally 0 Ca2+, 30 μM LOP, mean of individual Boltzmann fits
[13] = nominally 0 Ca2+, −100 to −60 mV

## CN(C)C(=O)C(CCN1CCC(O)(c2ccc(Cl)cc2)CC1)(c1ccccc1)c1ccccc1 [LOP, 4-[4-(4-chlorophenyl)-4-hydroxypiperidin-1-yl]-N,N-dimethyl-2,2-diphenylbutanamide]
[1]
  estimated concentration of LOP in the intestinal lumen: ≥ 8 µM
[2]
  KLOP in the open state: 1.6 µM
[2]; Sch 2, closed state, global fit, nominally 0 and 88 μM Ca2+
  KLOP (dissociation constant for LOP binding): 53.4 µM
[2]; Sch 2, fold difference in LOP affinity between closed and open states
  H (allosteric constant, LOP binding vs closed-open equilibrium): 34.4
[2]; Sch 5
  W (coupling between LOP binding and CSD activation): 1.09
[3]
  plasma levels of LOP: ~4 nM
[4]; [10]
  IC50: 2.13 ± 0.3 µM
[4]; [11]
  IC50: 1.5 ± 1.7 µM
[4]; IC50, nominally 0 Ca2+, Vm 0 mV, Hill fit of normalized G vs [LOP]
  IC50: 11.3 ± 3.5 µM
[4]; nominally 0 Ca2+
  A (Eq. 4, IC50 versus voltage): 7.6
  mean zδ value of G-V relations versus [LOP]: 1.2 e0
  min V1/2 (Hill fit of mean V1/2 versus [LOP]): −15 ± 11 mV
  nH (Hill fit of mean Gmax versus [LOP]): 0.74 ± 0.06
  nH (Hill fit of mean V1/2 versus [LOP]): 0.72 ± 0.4
[4]; [12]
  Gmax: 0.12 ± 0.04
  V1/2: −11 ± 5 mV
[5]
  inhibition of BK channel–mediated thallium flux: potent inhibitor
[6]; voltages up to 100 mV, nominally 0 or 88 µM Ca2+
  mean open times: ≤ 0.44 ms
[6]; 88 µM Ca2+
  V1/2 of mean open time (Boltzmann fit): −83 mV
  min. open time (Boltzmann fit): 0.26 ms
  zδ of mean open time (Boltzmann fit): 1.6 e0
[6]; 88 µM Ca2+, 1/0.43 ms
  effective inhibition rate: 2,326 s^−1
[6]; 88 µM Ca2+, +50 mV
  mean open time: 0.37 ± 0.044 ms
[6]; 88 µM Ca2+, depolarized voltages
  maximum open time (Boltzmann fit): 0.43 ± 0.03 ms and 0.43 ms
[6]; 88 µM Ca2+, −50 mV
  mean open time: 0.44 ± 0.026 ms
[6]; 88 µM Ca2+, −90 mV
  Po: 0.00728 ± 0.0010
  inhibition of Po: 2.7 fold
  mean open time: 0.32 ± 0.03 ms
[6]; 88 µM Ca2+, −160 to −130 mV
  Po: 0.0037 ± 0.0003
  mean open time: 0.26 ± 0.004 ms
[6]; nominally 0 Ca2+, 1/0.39 ms
  effective inhibition rate: 2,564 s^−1
[6]; nominally 0 Ca2+, +60 mV
  Po: 1.3 ± 0.6 × 10^−4
  inhibition of Po: 3.7 fold
  mean open time: 0.32 ± 0.03 ms
[6]; nominally 0 Ca2+, +80 mV
  Po: 5.4 ± 1.3 × 10^−4
  inhibition of Po: 3.5 fold
  mean open time: 0.38 ± 0.008 ms
[6]; nominally 0 Ca2+, depolarized voltages
  extrapolated maximum open time (Boltzmann fit): 0.39 ± 0.04 ms
[6]; [13]
  mean Po: 1.7 ± 0.2 × 10^−6
  mean open time: 0.18 ± 0.009 ms
[7]; 10 µM LOP, extracellular bath
  current recovery after washout of LOP (of predrug amplitude): ~80%
[7]; bath application of 10 µM LOP, pulses to 100 mV
  mean fractional whole-cell current at equilibrium: 0.39 ± 0.06
[7]; extracellular bath-applied LOP
  slowing versus cytosolic application to excised inside-out patches: ~20 times
[7]; extracellular bath-applied LOP (10 µM)
  mean time constant for inhibition to reach equilibrium: 2.8 ± 0.4 min
[7]; representative experiment Fig. 5 A, first application of 10 µM LOP at t = 5 min
  τ of exponential fit (a): 1.9 min
[7]; representative experiment Fig. 5 A, washout at t = 25 min
  τ of exponential fit (e): 51 s
[8]; 3 µM LOP cytosolic with 3 µM extracellular LOP (pipette), 88 µM Ca2+
  mean fractional current: 0.361 ± 0.013
[8]; 3 µM LOP cytosolic without extracellular LOP, 88 µM Ca2+
  mean fractional current: 0.292 ± 0.033
[8]; 3 µM LOP in pipette solution, 88 µM Ca2+, several minutes
  effect of extracellular LOP alone on BK current: little apparent effect; also recorded: no apparent inhibition
[8]; 3 µM LOP in the pipette, 0 LOP cytosolic, after 30 min of continuous recording
  decrease of normalized current: 5–10%
[8]; 30 µM LOP cytosolic, 0 µM Ca2+, representative experiment
  τ of decay phase on LOP application: 8.5 s
[8]; 30 µM LOP cytosolic, 88 µM Ca2+, representative experiment
  τ of decay phase on LOP application: 7.1 s
[8]; 30 µM LOP cytosolic, Fig. 2 A
  current recovery after washout of LOP (of predrug amplitude): ~100%
[8]; 30 µM LOP to cytosolic side, 88 µM Ca2+, reflects solution switching
  time constant of LOP reaching 90% of its maximal effect: 7 ± 1 s
[8]; 88 µM Ca2+
  A (Eq. 4, IC50 versus voltage): 0.39
  min V1/2 (Hill fit of mean V1/2 versus [LOP]): −57 ± 8 mV
  nH (Hill fit of mean Gmax versus [LOP]): 0.79 ± 0.06
  nH (Hill fit of mean V1/2 versus [LOP]): 0.94 ± 0.6
[8]; 88 μM Ca2+, 3 µM LOP, 90 mV / -60 mV duration 2 / 2 ms
  y0 (final normalized current in pulse train): 0.50 ± 0.019
[8]; 88 μM Ca2+, 3 µM LOP, 90 mV / -60 mV duration 2 / 8 ms
  y0 (final normalized current in pulse train): 0.74 ± 0.032
[8]; 88 μM Ca2+, mean of individual Boltzmann fits
  V1/2: −54 ± 7 mV
[8]; 88 μM Ca2+, 30 μM LOP, mean of individual Boltzmann fits
  Gmax: 0.0763 ± 0.008
[8]; 88 µM Ca2+, 50 mV
  effective on-rate (slope of 1/τdecay versus [LOP]): 4.3 ± 0.4 × 10^7 M^−1 s^−1 and 4.3 × 10^7 ± 0.4 × 10^7 M^−1 s^−1
  effective off-rate: ~40 s⁻¹
[8]; 88 µM Ca2+, 90 mV
  effective on-rate (slope of 1/τdecay versus [LOP]): 5.8 ± 0.6 × 10^7 M^−1 s^−1 and 5.8 × 10^7 ± 0.6 × 10^7 M^−1 s^−1
  effective off-rate: 41 s⁻¹ and 40 s⁻¹
[8]; 88 µM Ca2+, on-rates at 50 and 90 mV
  nominal effective valence of on-rates (Eq. 5): 0.21 ± 0.11 e0
[8]; 88 µM Ca2+, −80 mV, 3 µM LOP
  τrecovery: 3.87 ms
  mean tail current τ: 1.82 ± 0.14 ms
[8]; 88 µM Ca2+, −80 mV, 10 µM LOP
  τrecovery: 4.14 ms
  mean tail current τ: 2.05 ± 0.6 ms
[8]; 88 µM Ca2+, −120 mV, 3 µM LOP
  τrecovery: 2.04 ms
  mean tail current τ: 0.71 ± 0.06 ms
[8]; 88 µM Ca2+, −120 mV, 10 µM LOP
  τrecovery: 2.11 ms
  mean tail current τ: 0.78 ± 0.07 ms
[8]; 3 or 30 µM cytosolic LOP with 3 µM extracellular LOP, 88 µM Ca2+, Fig. 2 B
  current recovery following washout of cytosolic LOP: > 90%
[8]; nominally 0 Ca2+
  A (Eq. 4, IC50 versus voltage): 5,500
  mean zδ value of G-V relations versus [LOP]: 1.1 e0
  min Gmax (Hill fit of mean Gmax versus [LOP]): 0.16 ± 0.04
  min V1/2 (Hill fit of mean V1/2 versus [LOP]): 162 ± 16 mV
  nH (Hill fit of mean Gmax versus [LOP]): 1.2 ± 0.13
  nH (Hill fit of mean V1/2 versus [LOP]): 0.65 ± 1.1
[8]; nominally 0 Ca2+, mean of individual Boltzmann fits
  V1/2: 165 ± 5 mV
[8]; switch from 30 to 0 µM LOP, cytosolic side
  time to complete reversal of inhibition upon washout: ≤ 1 min
[8]; washout of 30 µM LOP, 0 µM Ca2+, representative experiment
  τ of wash phase: 35 s
[8]; −80 mV, 3 µM LOP
  apparent closing rate (1/τclosing): 684 ± 57 s⁻¹
  tail current τ (fit to mean trace): 1.99 ms
  tail current τ (representative trace): 2.25 ms
[8]; −80 mV, 10 µM LOP
  tail current τ (fit to mean trace): 1.77 ms
  tail current τ (representative trace): 1.73 ms
[8]; −120 mV, 3 µM LOP
  apparent closing rate (1/τclosing): 1,460 ± 69 s^−1
  tail current τ (fit to mean trace): 0.82 ms
  tail current τ (representative trace): 0.876 ms
[8]; −120 mV, 10 µM LOP
  tail current τ (fit to mean trace): 0.85 ms
  tail current τ (representative trace): 0.694 ms
[9]; IC50 (Hill fit of mean Gmax versus [LOP]), 88 µM Ca2+
  IC50: 1.06 µM and 1.1 µM
[9]; [10]
  IC50: 1.4 µM and 1.41 µM
[9]; IC50 (Hill fit of mean V1/2 versus [LOP]), 88 µM Ca2+
  IC50: 0.31 ± 0.3 µM
[9]; [11]
  IC50: 0.55 µM
[9]; IC50(∞), asymptotic IC50 at very depolarized voltages (Eq. 4), 88 µM Ca2+
  IC50: 0.87 µM
[9]; IC50(∞), asymptotic IC50 at very depolarized voltages (Eq. 4), nominally 0 Ca2+
  IC50: 2.2 µM
[9]; IC50, 88 μM Ca2+, Vm 50 mV, Hill fit of normalized G vs [LOP]
  IC50: ~0.94 µM
[9]; extrapolated IC50, 88 µM Ca2+, 90 mV
  IC50: 0.71 µM
[9]; half-maximal inhibitory concentration (IC50) for open channels, voltage-activated BK current, wide range of cytosolic [Ca2+]
  IC50: ~1 µM
